Experimental findings from PMC9151520 (Archives of Toxicology, 2022) are described below.

Broadly, the EC50 is the concentration needed to bring the measured effect to its halfway point.

Several values for one entry are separate records, joined by “and”; a condition that tells them apart may be missing. Equal entries are not always repeated. Structures can show the parent of a compound that is named as a salt. Where two headings read alike, the source gives them in different places.

The subject of data set [1] is p53 signaling (p53RE-bla HCT-116 cells). Nature of the data set: cells. It is filed as cell-based.
The test system is the same in data set [2]. To be noted: for EC50: read-out: p53 activation EC50, HLM.
The test system is the same in data set [3].
[4] abbreviates: read-out: EC50, p53 activation, cherry pick confirmation.
[5] abbreviates: read-out: EC50, p53 activation, primary screening.
The mark [6] stands for this setting: read-out: p53 activation EC50, cherry pick confirmation.
Where [7] appears, read: read-out: p53 activation EC50, primary screening.
Where [8] appears, read: Homo sapiens, HCT-116, read-out: Efficacy, p53 activation, cherry pick confirmation.

`Cl.O.c1cnc2c(c1)ccc1cccnc12`: in the data set with p53RE-bla HCT-116 cells, the “EC50, viability, cherry pick confirmation” value is “inactive”; the “EC50, viability, primary screening” value was “inactive”; the “Efficacy, viability, primary screening” value is “inactive”. Further, the EC50 with p53RE-bla HCT-116 cells (read-out: EC50, viability, cherry pick confirmation) stood at 22.1 µM. For the same compound, in data set [1], the “Efficacy, p53 activation, cherry pick confirmation” value came out at 70.9047 and the “Efficacy, p53 activation, primary screening” value amounted to 35.453. Further, the EC50 in data set [1] (setting [4]) was 50.2 µM. Further, the EC50 in data set [1] (setting [5]) is 25.8 µM. For the same compound, in data set [2], the “EC50, p53 activation, cherry pick confirmation” value is “inactive”; the “EC50, p53 activation, primary screening” value was “inactive”; the “Efficacy, p53 activation, cherry pick confirmation” value is “inactive”; the “Efficacy, p53 activation, primary screening” value is “inactive”. In addition, in data set [3], the “EC50, p53 activation, cherry pick confirmation” value is “inactive”; the “EC50, p53 activation, primary screening” value is “inactive”; the “Efficacy, p53 activation, cherry pick confirmation” value was “inactive”; the “Efficacy, p53 activation, primary screening” value is “inactive”.

For the compound `CC(C)c1cccc(C(C)C)c1N1C(=O)c2ccc(O)cc2C1=O`, in the data set on p53RE-bla HCT-116 cells, the “Viability EC50, cherry pick confirmation” value was “inactive”; the “Viability EC50, primary screening” value is “inactive”; the “Viability efficacy, cherry pick confirmation” value is “inactive”; the “Viability efficacy, primary screening” value was “inactive”. In addition, in data set [1], the “p53 activation efficacy, cherry pick confirmation” value is listed as 44.7367 and the “p53 activation efficacy, primary screening” value was determined as 87.6647. Further, the EC50 in data set [1] (setting [6]) stood at 3.1 µM. The EC50 in data set [1] (setting [7]) is 3.93 µM. Moreover, in data set [2], the “p53 activation EC50, cherry pick confirmation” value is “inactive”; the “p53 activation EC50, primary screening” value is “inactive”; the “p53 activation efficacy, cherry pick confirmation” value was “inactive”; the “p53 activation efficacy, primary screening” value was “inactive”. In data set [3], the “p53 activation EC50, cherry pick confirmation” value is “inactive”; the “p53 activation EC50, primary screening” value is “inactive”; the “p53 activation efficacy, cherry pick confirmation” value was “inactive”; the “p53 activation efficacy, primary screening” value is “inactive”.

Regarding `Cl.Nc1ccn([C@@H]2O[C@H](CO)[C@@H](O)C2(F)F)c(=O)n1`, in the data set on p53RE-bla HCT-116 cells, the “Viability EC50, cherry pick confirmation” value is “inactive”; the “Viability EC50, primary screening” value was “inactive”; the “Viability efficacy, cherry pick confirmation” value is “inactive”; the “Viability efficacy, primary screening” value was “inactive”. In data set [1], the “p53 activation efficacy, cherry pick confirmation” value came out at 111.507 and the “p53 activation efficacy, primary screening” value turned out to be 94.321. Besides, in data set [1] (setting [6]), the EC50 worked out at 0.205 µM. For the same compound, the EC50 in data set [1] (setting [7]) was found to be 0.174 µM. Further, in data set [2], the “p53 activation EC50, cherry pick confirmation” value was “inactive”; the “p53 activation EC50, primary screening” value is “inactive”; the “p53 activation efficacy, cherry pick confirmation” value is “inactive”; the “p53 activation efficacy, primary screening” value was “inactive”. In data set [3], the “p53 activation EC50, cherry pick confirmation” value is “inactive”; the “p53 activation EC50, primary screening” value was “inactive”; the “p53 activation efficacy, cherry pick confirmation” value was “inactive”; the “p53 activation efficacy, primary screening” value is “inactive”.

Take `COC(=O)c1nc(Cl)c(Cl)nc1N`: in the data set on p53RE-bla HCT-116 cells, the “EC50, viability, cherry pick confirmation” value is “inactive”; the “EC50, viability, primary screening” value was “inactive”; the “Efficacy, viability, cherry pick confirmation” value is “inactive”; the “Efficacy, viability, primary screening” value is “inactive”. Besides, in data set [1], the “Efficacy, p53 activation, cherry pick confirmation” value came out at 118.088 and the “Efficacy, p53 activation, primary screening” value is recorded as 51.0133. Further, in data set [1] (setting [4]), the EC50 stood at 24 µM. In addition, the EC50 in data set [1] (setting [5]) was found to be 21.5 µM. Besides, in data set [2], the “EC50, p53 activation, cherry pick confirmation” value is “inactive”; the “EC50, p53 activation, primary screening” value is “inactive”; the “Efficacy, p53 activation, cherry pick confirmation” value was “inactive”. In addition, in data set [3], the “EC50, p53 activation, cherry pick confirmation” value is “inactive” and the “Efficacy, p53 activation, cherry pick confirmation” value is “inactive”. The EC50 in data set [3] (setting [5]) came to 22.4 µM.

In the case of `CC(=O)Nc1ccn(C2COC(COC(=O)c3ccccc3)O2)c(=O)n1` (stereo not shown), in the data set with p53RE-bla HCT-116 cells, the “Viability EC50, cherry pick confirmation” value is “inactive”; the “Viability EC50, primary screening” value is “inactive”; the “Viability efficacy, cherry pick confirmation” value was “inactive”; the “Viability efficacy, primary screening” value was “inactive”. Also, in data set [1], the “p53 activation efficacy, cherry pick confirmation” value was 43.9867 and the “p53 activation efficacy, primary screening” value amounted to 52.8473. Also, the EC50 in data set [1] (setting [6]) is 9.43 µM. Also, the EC50 in data set [1] (setting [7]) turned out to be 2.5 µM. For the same compound, in data set [2], the “p53 activation EC50, cherry pick confirmation” value was “inactive”; the “p53 activation EC50, primary screening” value was “inactive”; the “p53 activation efficacy, cherry pick confirmation” value was “inactive”; the “p53 activation efficacy, primary screening” value is “inactive”. In data set [3], the “p53 activation EC50, cherry pick confirmation” value was “inactive”; the “p53 activation EC50, primary screening” value is “inactive”; the “p53 activation efficacy, cherry pick confirmation” value was “inactive”; the “p53 activation efficacy, primary screening” value is “inactive”.

As for `N=C1NC(=N)c2cc3ccccc3cc21` [1,3-Diiminobenz(f)isoindoline], in the data set on p53RE-bla HCT-116 cells, the “Viability EC50” value is “inactive”. In addition, in data set [1], the p53 activation efficacy was 115.412 and 121.93. In addition, the EC50 in data set [1] (read-out: p53 activation EC50) was 23.7 µM and 25.2 µM. Besides, the “p53 activation EC50” value in data set [2] and in data set [3] was “inactive” in each case.

For the compound `Cc1ccc([N+](=O)[O-])c(C)c1` [1,3-Dimethyl-4-nitrobenzene], in the data set with p53RE-bla HCT-116 cells, the “Viability EC50, cherry pick confirmation” value was “inactive”; the “Viability EC50, primary screening” value was “inactive”; the “Viability efficacy, cherry pick confirmation” value was “inactive”; the “Viability efficacy, primary screening” value is “inactive”. In data set [1], the “p53 activation EC50, cherry pick confirmation” value was “inactive”; the “p53 activation EC50, primary screening” value is “inactive”; the “p53 activation efficacy, cherry pick confirmation” value is “inactive”; the “p53 activation efficacy, primary screening” value is “inactive”. Also, in data set [2], the “p53 activation EC50, cherry pick confirmation” value was “inactive” and the “p53 activation efficacy, cherry pick confirmation” value was “inactive”. In data set [3], the “p53 activation EC50, cherry pick confirmation” value was “inactive” and the “p53 activation efficacy, cherry pick confirmation” value is “inactive”.

`O=C(c1ccc(O)c(O)c1)c1ccc(O)cc1O` [2,3',4,4'-Tetrahydroxybenzophenone]: in data set [1], the “p53 activation efficacy, cherry pick confirmation” value is “inactive”.

For the compound `CC(C)c1ccc2cc(C(C)C)ccc2c1` [2,6-Diisopropylnaphthalene], the “Efficacy, p53 activation, cherry pick confirmation” value in data set [1] is “inactive”. For the same compound, in data set [3], the “Efficacy, p53 activation, cherry pick confirmation” value is “inactive” and the “Efficacy, p53 activation, primary screening” value is “inactive”.

`O=C1CCCc2c1cc1ccc3cccc4ccc2c1c34` [9,10-Dihydrobenzo[a]pyren-7(8H)-one]: in the data set with p53RE-bla HCT-116 cells, the “Viability EC50, HLM” value was “inactive”; the “Viability EC50, No MS” value is “inactive”; the “Viability EC50, RLM” value was “inactive”; the “Viability Efficacy, HLM” value was “inactive”. Also, in the data set with p53RE-bla HCT-116 cells, the “Viability Efficacy, No MS” value was “inactive” and the “Viability Efficacy, RLM” value is “inactive”. Further, in data set [2], the “p53 activation EC50, HLM” value was “inactive” and the EC50 is 9.29 µM. Moreover, in data set [3], the “p53 activation EC50, RLM” value was “inactive” and the “p53 activation Efficacy, RLM” value was “inactive”.

As for `Oc1c(Cl)cc(Cl)cc1Sc1cc(Cl)cc(Cl)c1O` [Bithionol], the entries for the “Efficacy, p53 activation, primary screening” value in data set [1], in data set [2] and in data set [3] were 93.9867, “inactive” and “inactive”, respectively. For the same compound, the EC50 worked out at 20.3 µM in data set [1] (Homo sapiens, HCT-116, read-out: EC50, p53 activation, cherry pick confirmation) and 39.6 µM in data set [1] (setting [5]). The Emax in data set [1] (setting [8]) worked out at 74%. The “EC50, p53 activation, cherry pick confirmation” value in data set [2] and in data set [3] was “inactive” each time. The “EC50, p53 activation, primary screening” value in data set [2] and in data set [3] was “inactive” in each case. Besides, the “Efficacy, p53 activation, cherry pick confirmation” value in data set [2] and in data set [3] was “inactive” in each case.

For `CSc1ccc2c(c1)N(CCC1CCCCN1C)c1ccccc1S2` (stereo not shown) [Thioridazine hydrochloride], the Emax in data set [1] (setting [8]) was 51.8%. Also, the Emax in data set [1] (Homo sapiens, HCT-116, read-out: Efficacy, p53 activation, primary screening) was 64.5%. In addition, in data set [2], the “EC50, p53 activation, cherry pick confirmation” value is “inactive”; the “EC50, p53 activation, primary screening” value was “inactive”; the “Efficacy, p53 activation, cherry pick confirmation” value is “inactive”; the “Efficacy, p53 activation, primary screening” value was “inactive”. Moreover, in data set [3], the “EC50, p53 activation, cherry pick confirmation” value is “inactive”; the “EC50, p53 activation, primary screening” value is “inactive”; the “Efficacy, p53 activation, cherry pick confirmation” value is “inactive”; the “Efficacy, p53 activation, primary screening” value is “inactive”.

Take Irinotecan hydrochloride: in data set [1], the “Efficacy, p53 activation, cherry pick confirmation” value is given as 86.836 and the “Efficacy, p53 activation, primary screening” value was 70.7017. The EC50 in data set [1] (setting [5]) is 4.18 µM.

As to Phenylmercuric acetate, the “p53 activation Efficacy, No MS” value in data set [1] is 66.4107% and 63.4503%. In data set [2], the “p53 activation EC50, HLM” value is “inactive” and the EC50 worked out at 12.5 µM. Further, in data set [3], the “p53 activation EC50, RLM” value is “inactive” and the “p53 activation Efficacy, RLM” value is “inactive”.
